Where a SMILES comes first, the peptide text is derived from it. [ ]: non-standard residue; d: D form. The star is where a group is joined. Tle = CC(C)(C)[C@H](N)C(=O)O; Hexanoyl = CCCCCC(=O)*; Aib = CC(C)(N)C(=O)O; Acm = CC(=O)NC*
Test: Stability in human plasma assessed as parent compound remaining after 24 hrs
Type: ADME, cell-free
Conditions: read-out: Stability

Row | Compound | remaining at 24 h
1 | CCN1C(=O)CC(SC[C@H](NC(=O)[C@H](CC(C)C)NC(=O)[C@H](CCCCN)NC(=O)[C@H](C)NC(=O)C(C)(C)NC(=O)[C@H](CC(C)C)NC(=O)[C@H](CCCNC(=N)N)NC(=O)[C@H](CCC(=O)O)NC(=O)[C@H](Cc2ccccc2)NC(=O)[C@H](Cc2ccc(O)cc2)NC(=O)CNC(=O)[C@@H](NC(=O)[C@@H](NC(=O)[C@H](Cc2cnc[nH]2)NC(=O)[C@@H](NC(=O)[C@H](CC(N)=O)NC(=O)[C@H]2CCCN2C(=O)[C@H](CCCCN)NC(=O)[C@H](CO)NC(=O)[C@H](CCC(N)=O)NC(=O)[C@H](Cc2ccccc2)NC(C)=O)C(C)C)C(C)C)[C@@H](C)O)C(N)=O)C1=O (stereo not given in full) | 41.4%
2 | CCN1C(=O)CC(SC[C@H](NC(=O)[C@H](CC(C)C)NC(=O)[C@H](CCCCN)NC(=O)[C@H](C)NC(=O)C(C)(C)NC(=O)[C@H](CC(C)C)NC(=O)[C@H](CCCNC(=N)N)NC(=O)[C@H](CCC(=O)O)NC(=O)[C@H](Cc2ccccc2)NC(=O)[C@H](Cc2ccc(O)cc2)NC(=O)CNC(=O)[C@H](CO)NC(=O)[C@@H](NC(=O)[C@H](Cc2cnc[nH]2)NC(=O)[C@@H](NC(=O)[C@H](CC(N)=O)NC(=O)[C@H]2CCCN2C(=O)[C@H](CCCCN)NC(=O)[C@H](CO)NC(=O)[C@H](CCC(N)=O)NC(=O)[C@H](Cc2ccccc2)NC(C)=O)C(C)C)C(C)C)C(N)=O)C1=O (stereo not given in full) | 33.4%
3 | CC(=O)N[C@@H](Cc1ccccc1)C(=O)N[C@@H](CCC(N)=O)C(=O)N[C@@H](CO)C(=O)N[C@@H](CCCCN)C(=O)N1CCC[C@@H]1C(=O)N[C@@H](CC(N)=O)C(=O)N[C@H](C(=O)N[C@@H](Cc1cnc[nH]1)C(=O)N[C@H](C(=O)N1CCC[C@H]1C(=O)NCC(=O)N[C@@H](Cc1ccc(O)cc1)C(=O)N[C@@H](Cc1ccccc1)C(=O)N[C@@H](CCC(=O)O)C(=O)N[C@@H](CCCNC(=N)N)C(=O)N[C@@H](CC(C)C)C(=O)NC(C)(C)C(=O)N[C@@H](C)C(=O)N[C@@H](CCCCN)C(=O)N[C@@H](CC(C)C)C(N)=O)C(C)C)C(C)C | 76.3%
4 | CC(=O)N[C@@H](Cc1ccccc1)C(=O)N[C@@H](CCC(N)=O)C(=O)N[C@@H](CO)C(=O)N[C@@H](CCCCN)C(=O)N(CCCN)CC(=O)N[C@@H](CC(N)=O)C(=O)N[C@H](C(=O)N[C@@H](Cc1cnc[nH]1)C(=O)N[C@H](C(=O)N[C@@H](CC(=O)O)C(=O)NCC(=O)N[C@@H](Cc1ccc(O)cc1)C(=O)N[C@@H](Cc1ccccc1)C(=O)N[C@@H](CCC(=O)O)C(=O)N[C@@H](CCCNC(=N)N)C(=O)N[C@@H](CC(C)C)C(=O)NC(C)(C)C(=O)N[C@@H](C)C(=O)N[C@@H](CCCCN)C(=O)N[C@@H](CC(C)C)C(N)=O)C(C)C)C(C)C | 46.7%
5 | CC(C)C[C@H](NC(=O)[C@H](CCCCN)NC(=O)[C@H](C)NC(=O)C(C)(C)NC(=O)[C@H](CC(C)C)NC(=O)[C@H](CCCNC(=N)N)NC(=O)[C@H](CCC(=O)O)NC(=O)[C@H](Cc1ccccc1)NC(=O)[C@H](Cc1ccc(O)cc1)NC(=O)[C@@H](C)NC(=O)[C@H](CC(=O)O)NC(=O)[C@@H](NC(=O)[C@H](Cc1cnc[nH]1)NC(=O)[C@@H](NC(=O)[C@H](CC(N)=O)NC(=O)[C@H]1CCCN1C(=O)[C@H](CCCCN)NC(=O)[C@H](CO)NC(=O)[C@H](CCC(N)=O)NC(=O)[C@H](Cc1ccccc1)NC(=O)Cc1ccc2ccccc2c1)C(C)C)C(C)(C)C)C(N)=O | 108%
6 | CCCCCC(=O)N[C@@H](Cc1ccccc1)C(=O)N[C@@H](CCC(N)=O)C(=O)N[C@@H](CO)C(=O)N[C@@H](CCCCN)C(=O)N1CCC[C@@H]1C(=O)N[C@@H](CSCNC(C)=O)C(=O)N[C@H](C(=O)N[C@@H](Cc1cnc[nH]1)C(=O)N[C@H](C(=O)N[C@@H](CC(=O)O)C(=O)N[C@H](C)C(=O)N[C@@H](Cc1ccc(O)cc1)C(=O)N[C@@H](Cc1ccccc1)C(=O)N[C@@H](CCC(=O)O)C(=O)N[C@@H](CCCNC(=N)N)C(=O)N[C@@H](CC(C)C)C(=O)NC(C)(C)C(=O)N[C@@H](C)C(=O)N[C@@H](CCCCN)C(=O)N[C@@H](CC(C)C)C(=O)N[C@@H](CSC1CC(=O)N(CC)C1=O)C(=O)O)C(C)(C)C)C(C)C (stereo not given in full) | 107%
7 | CCN1C(=O)CC(SC[C@H](NC(=O)[C@H](CC(C)C)NC(=O)[C@H](CCCCN)NC(=O)[C@H](C)NC(=O)C(C)(C)NC(=O)[C@H](CC(C)C)NC(=O)[C@H](CCCNC(=N)N)NC(=O)[C@H](CCC(=O)O)NC(=O)[C@H](Cc2ccccc2)NC(=O)[C@H](Cc2ccc(O)cc2)NC(=O)CNC(=O)[C@H](CC(=O)O)NC(=O)[C@@H](NC(=O)[C@H](Cc2cnc[nH]2)NC(=O)[C@@H](NC(=O)[C@H](CC(N)=O)NC(=O)[C@H]2CCCN2C(=O)[C@H](CCCCN)NC(=O)[C@H](CO)NC(=O)[C@H](CCC(N)=O)NC(=O)[C@H](Cc2ccccc2)NC(C)=O)C(C)C)C(C)(C)C)C(N)=O)C1=O (stereo not given in full) | 52%
8 | CC(=O)N[C@@H](Cc1ccccc1)C(=O)N[C@@H](CCC(N)=O)C(=O)N[C@@H](CO)C(=O)N[C@@H](CCCCN)C(=O)N(CC(=O)N[C@@H](CC(N)=O)C(=O)N[C@H](C(=O)N[C@@H](Cc1cnc[nH]1)C(=O)N[C@H](C(=O)N[C@@H](CC(=O)O)C(=O)NCC(=O)N[C@@H](Cc1ccc(O)cc1)C(=O)N[C@@H](Cc1ccccc1)C(=O)N[C@@H](CCC(=O)O)C(=O)N[C@@H](CCCNC(=N)N)C(=O)N[C@@H](CC(C)C)C(=O)NC(C)(C)C(=O)N[C@@H](C)C(=O)N[C@@H](CCCCN)C(=O)N[C@@H](CC(C)C)C(N)=O)C(C)C)C(C)C)C1CCCCC1 | 17.4%
9 | CC(=O)N[C@@H](Cc1ccccc1)C(=O)N[C@@H](CCC(N)=O)C(=O)N[C@@H](CO)C(=O)N[C@@H](CCCCN)C(=O)N1CCC[C@@H]1C(=O)N[C@@H](CCCNC(=N)N)C(=O)N[C@H](C(=O)N[C@@H](Cc1cnc[nH]1)C(=O)N[C@H](C(=O)N[C@@H](CC(=O)O)C(=O)NCC(=O)N[C@@H](Cc1ccc(O)cc1)C(=O)N[C@@H](Cc1ccccc1)C(=O)N[C@@H](CCC(=O)O)C(=O)N[C@@H](CCCNC(=N)N)C(=O)N[C@@H](CC(C)C)C(=O)NC(C)(C)C(=O)N[C@@H](C)C(=O)N[C@@H](CCCCN)C(=O)N[C@@H](CC(C)C)C(N)=O)C(C)(C)C)C(C)C | 66.1%
10 | CCN1C(=O)CC(SC[C@H](NC(=O)[C@H](CC(C)C)NC(=O)[C@H](CCCCN)NC(=O)[C@H](C)NC(=O)C(C)(C)NC(=O)[C@H](CC(C)C)NC(=O)[C@H](CCCNC(=N)N)NC(=O)[C@H](CCC(=O)O)NC(=O)[C@H](Cc2ccccc2)NC(=O)[C@H](Cc2ccc(O)cc2)NC(=O)CNC(=O)[C@@H]2CCCN2C(=O)[C@@H](NC(=O)[C@H](Cc2cnc[nH]2)NC(=O)[C@@H](NC(=O)[C@H](CC(N)=O)NC(=O)[C@H]2CCCN2C(=O)[C@H](CCCCN)NC(=O)[C@H](CO)NC(=O)[C@H](CCC(N)=O)NC(=O)[C@H](Cc2ccccc2)NC(C)=O)C(C)C)C(C)C)C(N)=O)C1=O (stereo not given in full) | 58%
11 | CCN1C(=O)CC(SC[C@H](NC(=O)[C@H](CC(C)C)NC(=O)[C@H](CCCCN)NC(=O)[C@H](C)NC(=O)C(C)(C)NC(=O)[C@H](CC(C)C)NC(=O)[C@H](CCCNC(=N)N)NC(=O)[C@H](CCC(=O)O)NC(=O)[C@H](Cc2ccccc2)NC(=O)[C@H](Cc2ccc(O)cc2)NC(=O)CNC(=O)[C@@H](CC(=O)O)NC(=O)[C@@H](NC(=O)[C@H](Cc2cnc[nH]2)NC(=O)[C@@H](NC(=O)[C@H](CS)NC(=O)[C@H]2CCCN2C(=O)[C@H](CCCCN)NC(=O)[C@H](CO)NC(=O)[C@H](CCC(N)=O)NC(=O)[C@H](Cc2ccccc2)NC(C)=O)C(C)C)C(C)C)C(N)=O)C1=O (stereo not given in full) | 70.9%
12 | CCN1C(=O)CC(SC[C@H](NC(=O)[C@H](CC(C)C)NC(=O)[C@H](CCCCN)NC(=O)[C@H](C)NC(=O)C(C)(C)NC(=O)[C@H](CC(C)C)NC(=O)[C@H](CCCNC(=N)N)NC(=O)[C@H](CCC(=O)O)NC(=O)[C@H](Cc2ccccc2)NC(=O)[C@H](Cc2ccc(O)cc2)NC(=O)CNC(=O)[C@@H](NC(=O)[C@@H](NC(=O)[C@H](Cc2cnc[nH]2)NC(=O)[C@@H](NC(=O)[C@H](CC(N)=O)NC(=O)[C@H]2CCCN2C(=O)[C@H](CCCCN)NC(=O)[C@H](CO)NC(=O)[C@H](CCC(N)=O)NC(=O)[C@H](Cc2ccccc2)NC(C)=O)C(C)C)C(C)(C)C)[C@@H](C)O)C(N)=O)C1=O (stereo not given in full) | 52.6%
13 | CCCCCC(=O)N[C@@H](Cc1ccccc1)C(=O)N[C@@H](CCC(N)=O)C(=O)N[C@@H](CO)C(=O)N[C@@H](CCCCN)C(=O)N1CCC[C@@H]1C(=O)N[C@@H](CSCNC(C)=O)C(=O)N[C@H](C(=O)N[C@@H](Cc1cnc[nH]1)C(=O)N[C@H](C(=O)N[C@@H](CC(=O)O)C(=O)N[C@H](C)C(=O)N[C@@H](Cc1ccc(O)cc1)C(=O)N[C@@H](Cc1ccccc1)C(=O)N[C@@H](CCC(=O)O)C(=O)N[C@@H](CCCNC(=N)N)C(=O)N[C@@H](CC(C)C)C(=O)NC(C)(C)C(=O)N[C@@H](C)C(=O)N[C@@H](CCCCN)C(=O)N[C@@H](CC(C)C)C(N)=O)C(C)(C)C)C(C)C (Hexanoyl-FQSK[dP]C(Acm)VH[Tle]D[dA]YFERL[Aib]AKL-NH2) | 90.1 to 93%
14 | CC(=O)N[C@@H](Cc1ccccc1)C(=O)N[C@@H](CCC(N)=O)C(=O)N[C@@H](CO)C(=O)N[C@@H](CCCCN)C(=O)N1CCC[C@@H]1C(=O)N[C@@H](CC(N)=O)C(=O)N[C@H](C(=O)N[C@@H](Cc1cnc[nH]1)C(=O)N[C@H](C(=O)N1CCC[C@H]1C(=O)N[C@@H]1CSSCC[C@@H](C(=O)N[C@@H](CCCNC(=N)N)C(=O)N[C@@H](CC(C)C)C(=O)NC(C)(C)C(=O)N[C@@H](C)C(=O)N[C@@H](CCCCN)C(=O)N[C@@H](CC(C)C)C(N)=O)NC(=O)[C@H](Cc2ccccc2)NC(=O)[C@H](Cc2ccc(O)cc2)NC1=O)C(C)C)C(C)C | 40.7%
15 | CC(C)C[C@@H]1NC(=O)[C@H](CCCCN)NC(=O)[C@H](C)NC(=O)C(C)(C)NC(=O)[C@H](CC(C)C)NC(=O)[C@H](CCCNC(=N)N)NC(=O)[C@H](CCC(=O)O)NC(=O)[C@H](Cc2ccccc2)NC(=O)[C@H](Cc2ccc(O)cc2)NC(=O)CNC(=O)[C@H](CC(=O)O)NC(=O)[C@H](C(C)C)NC(=O)[C@H](Cc2cnc[nH]2)NC(=O)[C@H](C(C)C)NC(=O)[C@H](CC(N)=O)NC(=O)[C@H]2CCCN2C(=O)[C@H](CCCCN)NC(=O)[C@H](CO)NC(=O)[C@H](CCC(N)=O)NC(=O)[C@H](Cc2ccccc2)NC(=O)CCOCCOCCOCCOCCNC1=O | 55.9%
